Assay results: patent publication US8158088B2, “Extractant compositions for co-extracting cesium and strontium, a method of separating cesium and strontium from an aqueous feed, and calixarene compounds” (Battelle Energy Alliance, LLC, priority 2008, dated 2012)

Experiments:
Format in all cases: physicochemical
[1] = Cesium distribution ratio (DCs), equilibrium batch contact of mixed extractant solvent with nitric acid feed; details: for Cesium distribution ratio, contact E1: first forward extraction, 1.5 M HNO3 feed simulant, 0.075 M DtBuCH18C6, 0.75 M Cs-7SB, 0.003 M TOA in ISOPAR L; for Cesium distribution ratio, contact E1 / Cesium distribution ratio, contact E2 / Cesium distribution ratio, contact E3: 25 °C; for Cesium distribution ratio, contact St1: first strip with 0.01 M HNO3, 35 °C; for Cesium distribution ratio, contact St1 / Cesium distribution ratio, contact E2 / Cesium distribution ratio, contact St2 / Cesium distribution ratio, contact E3: 0.007 M calixarene solvent; for Cesium distribution ratio, contact E2: second forward extraction; for Cesium distribution ratio, contact St2: second strip with 0.01 M HNO3, 35 °C; for Cesium distribution ratio, contact E3: third forward extraction
Description: The distribution of cesium and strontium between the first organic phase (the mixed extractant solvent including the dialkyloxycalix[4]arenebenzocrown-6 compound) and the first aqueous phase (aqueous feed) may be determined by conventional techniques. The distribution ratio for strontium (“DSr”) may be calculated as the ratio of organic phase activity to the aqueous phase activity at equilibrium. High values for the DSr indicate that the strontium is present predominantly in the organic phase while low values for the DSr indicate that the strontium is present predominantly in the aqueous phase. Similarly, the distribution ratio for cesium (“DCs”) may be calculated as the ratio of organic phase activity to the aqueous phase activity at equilibrium. High values for the DCs indicate that the cesium is present predominantly in the organic phase while low values for the DCs indicate that the cesium is present predominantly in the aqueous phase.
Distribution ratios (DM=[M]org/[M]aq) were measured by equilibrium batch contacts between the organic and aqueous phases at an organic-to-aqueous phase ratio (O/A) of unity (O/A=1). All distribution ratio measurements were conducted in a temperature controlled water bath at 25±1° C. The aqueous phase was of the appropriate HNO3 concentration, to which trace quantities (typically, less than 10^−7 M each) of the major radionuclides of interest (^137Cs, ^85Sr, ^154Eu, or ^241Am) were added. The organic and aqueous phases were contacted by vortex mixing for 1 minute. All batch contact experiments were performed at ambient temperature (from approximately 20° C. to approximately 25° C.) unless otherwise noted. Following extraction, the samples were centrifuged for 1 minute and the organic and aqueous phases separated by pipet or centrifugation. The distribution ratios (DSr, or DCs) were calculated as the ratio of the appropriate specific activities in the organic and aqueous phases as determined by γ-ray counting (gamma spectroscopy). The counting time was selected to provide less than approximately 1% statistical uncertainty.
(MC-8, MC-8B, MC-10, MC-10B, MC-12, or MC-12B), 0.075 M DtBuCH18C6, 0.75 M Cs-7SB modifier, and 0.003 M TOA in ISOPAR® L were evaluated for their respective abilities to simultaneously extract cesium and strontium from the aqueous feed simulant composition described in Table 2. The cesium and strontium distribution ratios of the mixed extraction solvents were compared to those of the FPEX I process solvent. The cesium extraction performance and strontium extraction performance of each of the mixed extractant solvents was determined using the batch contact flowsheet presented in FIG. 1, where “E1,” “E2,” and “E3” refer to three forward extraction acts: a first extraction act, a second extraction act, and a third extraction act, respectively, and “St1” and “St2” refer to two backward extraction acts: a first strip act and a second strip act, respectively. […] The aqueous feed 2 and the mixed extractant solvent 4 were combined in a vessel 6 to conduct the extraction. Two phases were formed during the extraction: the first organic phase and the first aqueous phase, with the cesium and strontium substantially distributed in the first organic phase.
The cesium and strontium distribution ratios for the mixed extractant solvents 4 were calculated for the first organic phase and are reported in Tables 3 and 4, respectively, as E1, along with the cesium and strontium distribution ratios for the FPEX I process solvent. The cesium and strontium were stripped from the first (and subsequent) organic phase to recover these radionuclides. For the strips or backward extractions, the first (and subsequent) organic phase was contacted with dilute acidic solution 8, which was 0.01 M HNO3. […]

[2] = Strontium distribution ratio (DSr), equilibrium batch contact of mixed extractant solvent with nitric acid feed; details: for Strontium distribution ratio, contact E1: first forward extraction, 1.5 M HNO3 feed simulant, 0.007 M calixarene, 0.075 M DtBuCH18C6, 0.75 M Cs-7SB, 0.003 M TOA in ISOPAR L; for Strontium distribution ratio, contact E1 / Strontium distribution ratio, contact E2 / Strontium distribution ratio, contact E3: 25 °C; for Strontium distribution ratio, contact St1: first strip with 0.01 M HNO3, 35 °C; for Strontium distribution ratio, contact St1 / Strontium distribution ratio, contact E2 / Strontium distribution ratio, contact St2 / Strontium distribution ratio, contact E3: 0.007 M calixarene solvent; for Strontium distribution ratio, contact E2: second forward extraction; for Strontium distribution ratio, contact E2 / Strontium distribution ratio, contact E3: 1.5 M HNO3 feed; for Strontium distribution ratio, contact St2: second strip with 0.01 M HNO3, 35 °C; for Strontium distribution ratio, contact E3: third forward extraction
[3] = Solvent stability: cesium distribution ratios as a function of contact time with 1.5 M HNO3
Procedure: (§1) The stability of the mixed extractant solvents prepared using dialkyloxycalix[4]arenebenzocrown-6 compounds (MC-8, MC-8B, MC-10, MC-10B, MC-12, or MC-12B) relative to BOBCalixC6 in the FPEX I process solvent was determined. Samples were prepared using each of the dialkyloxycalix[4]arenebenzocrown-6 compounds and contacted with 1.5 M HNO3. The samples included 0.007 M of the respective dialkyloxycalix[4]arenebenzo-crown-6 compound (MC-8, MC-8B, MC-10, MC-10B, MC-12, or MC-12B), 0.075 M DtBuCH18C6, 0.75 M Cs-7SB modifier, and 0.003 M TOA in ISOPAR® L. The stability of the dialkyloxycalix[4]arene-benzocrown-6 based solvents was evaluated by measuring the cesium and strontium distribution ratios as a function of contact time. These cesium and strontium distribution ratios for the mixed extractant solvents are presented in Table 9 and Table 10, respectively, along with the cesium and strontium distribution ratios for the FPEX I process solvent. The symbol “-” is used in Tables 9 and 10 to indicate no data was collected.
(§2) This degradation is likely due to chemical attack or nitration of the BOBCalixC6 in the FPEX I process solvent. […] However, it is difficult to compare the relative extents of degradation. In order to compare the different extractants, the distribution ratio data presented in Tables 9 and 10 were normalized to the values obtained at t=0 days contact. The normalized cesium and strontium distribution ratios for the FPEX I process solvent and the mixed extractant solvents as a function of contact time are presented in FIGS. 2 and 3, respectively.

[4] = Solvent stability: strontium distribution ratios as a function of contact time with 1.5 M HNO3
Procedure: as §1, §2

[5] = Third phase formation on contact with nitric acid
[6] = contact time 0 days with 1.5 M HNO3, 0.007 M calixarene, 0.075 M DtBuCH18C6, 0.75 M Cs-7SB, 0.003 M TOA in ISOPAR L
[7] = contact time 34 days with 1.5 M HNO3
[8] = contact time 70 days with 1.5 M HNO3
[9] = contact time 278 days with 1.5 M HNO3
[10] = contact time 36 days with 1.5 M HNO3
[11] = contact time 244 days with 1.5 M HNO3

Cesium distribution ratio as a function of contact time [3, 6]	Cesium distribution ratio as a function of contact time [3, 9]	Strontium distribution ratio as a function of contact time [4, 6]	Molecule	Cesium distribution ratio, contact E1 ([1]; 0.007 M calixarene)	Cesium distribution ratio, contact St1 [1]	Cesium distribution ratio, contact E2 ([1]; 1.5 M HNO3 feed)	Cesium distribution ratio, contact St2 [1]	Cesium distribution ratio, contact E3 ([1]; 1.5 M HNO3 feed)	Strontium distribution ratio, contact E1 [2]	Strontium distribution ratio, contact St1 [2]	Strontium distribution ratio, contact E2 [2]	Strontium distribution ratio, contact St2 [2]	Strontium distribution ratio, contact E3 [2]	other results
1.36	2.8	8.9	CCCCC(CC)COc1c2cccc1Cc1cccc3c1OCCOCCOc1ccccc1OCCOCCOc1c(cccc1Cc1cccc(c1OC[C@H](CC)CCCC)C3)C2 (some centres unmarked) [MC-8B, 1,3-alternate-25,27-di(2-ethylhexyl-1-oxy)calix[4]arenebenzocrown-6]	1.4	0.2	1.1	0.1	1.0	8.9	0.06	8.3	0.01	8.1	cesium distribution ratios, comparison in words ([1]; 0.007 M calixarene, 1.5 M HNO3 feed): lowest distribution ratios; Cesium distribution ratio as a function of contact time [3, 7]: 0.8; Cesium distribution ratio as a function of contact time [3, 8]: 1.5; stability toward hydrolytic degradation (normalized cesium distribution ratios, FIG. 2) ([3]; prolonged contact with 1.5 M HNO3): most resistant toward hydrolytic degradation; Strontium distribution ratio as a function of contact time [4, 7]: 7.2; Strontium distribution ratio as a function of contact time [4, 8]: 9.3; Strontium distribution ratio as a function of contact time [4, 9]: 7.6
3.7	1.1	9.5	CCCCCCCCCCOc1c2cccc1Cc1cccc3c1OCCOCCOc1ccccc1OCCOCCOc1c(cccc1Cc1cccc(c1OCCCCCCCCCC)C3)C2 [MC-10, 1,3-alternate-25,27-di(decyloxy)calix[4]arenebenzocrown-6]	3.7	0.5	2.0	0.2	1.6	9.5	0.06	8.4	0.01	8.3	Cesium distribution ratio as a function of contact time [3, 7]: 3.0; Cesium distribution ratio as a function of contact time [3, 8]: 3.5; Strontium distribution ratio as a function of contact time [4, 7]: 7.7; Strontium distribution ratio as a function of contact time [4, 8]: 9.0; Strontium distribution ratio as a function of contact time [4, 9]: 7.7
3.3		6.3	CCCCC(CCCC)CCCOc1c2cccc1Cc1cccc3c1OCCOCCOc1ccccc1OCCOCCOc1c(cccc1Cc1cccc(c1OCCCC(CCCC)CCCC)C3)C2 [MC-12B, 1,3-alternate-25,27-di(4-butyloctyl-1-oxy)calix[4]arenebenzocrown-6]	2.5	0.4	1.3	0.2	1.1	7.7	0.03	6.7	0.02	6.3	Cesium distribution ratio as a function of contact time [3, 10]: 2.1; Cesium distribution ratio as a function of contact time [3, 11]: 1.8; Strontium distribution ratio as a function of contact time [4, 10]: 6.9; Strontium distribution ratio as a function of contact time [4, 11]: 5.7
3.0	2.8	7.5	CCCCCCCCCCCCOc1c2cccc1Cc1cccc3c1OCCOCCOc1ccccc1OCCOCCOc1c(cccc1Cc1cccc(c1OCCCCCCCCCCCC)C3)C2 [MC-12, 1,3-alternate-25,27-di(dodecyloxy)calix[4]arenebenzocrown-6]	2.9	0.4	1.7	0.2	1.3	7.7	0.04	7.5	0.01	7.0	Cesium distribution ratio as a function of contact time [3, 10]: 2.5; Cesium distribution ratio as a function of contact time [3, 11]: 2.2; Strontium distribution ratio as a function of contact time [4, 10]: 7.1; Strontium distribution ratio as a function of contact time [4, 11]: 6.1
			CC(C)(C)CC(C)(C)c1ccc2c(c1)OCCOCCOc1c3cccc1Cc1cccc4c1OCCOCCOc1cc(C(C)(C)CC(C)(C)C)ccc1OCCOCCOc1c(cccc1C3)Cc1cccc(c1OCCOCCO2)C4 [BOBCalixC6, calix[4]arene-bis(tert-octylbenzo)-crown-6, reference compound]											third phase formation ([5]; 5 M HNO3, 0.025 M BOBCalixC6, 0.075 DtBuCH18C6, 0.003 M TOA, 0.75 M EXXAL 12 in ISOPAR L): Third phase formation was observed
			4′,4′,(5′)-di-(t-butyldicyclohexano)-18-crown-6 [DtBuCH18C6, reference compound]											stability (normalized strontium distribution ratios, FIG. 3) ([4]; prolonged contact with HNO3): subject to degradation following prolonged contact with HNO3
			CCC(C)c1ccc(OCC(O)COCC(F)(F)C(F)F)cc1 (centres unmarked) [Cs-7SB, 1-(2,2,3,3-tetrafluoropropoxy)-3-(4-sec-butylphenoxy)-2-propanol, reference compound]											nitric acid concentration above which a third phase forms ([5]; mixed extractant solvent with Cs-7SB as modifier added to aqueous feed): > 1.5 M
